These are literature values, as cited in patent US5585379A, “Acyclovir antiviral gel composition” (AGIS Industries (1983) Ltd., priority 1992, dated 1996).

For data set [1], the system named is herpes simplex virus. Particulars: in vitro and in vivo.
The test system of data set [2] is herpes simplex virus infections.
The conditions of data set [3]: oral.

Where two headings read alike, the source gives them in different places.

In the case of `Nc1nc2c(ncn2COCCO)c(=O)[nH]1` [Acyclovir, 9-(2-hydroxyethoxymethyl)guanine], the “solubility in water (words)” value was “low solubility in water”. Besides, the “antiviral activity against herpes simplex virus (words)” value in data set [1] is on record as “active against herpes simplex virus”. For the same molecule, in data set [1] (listed as acyclovir), the “antiviral activity against herpes simplex virus (words)” value is “potent antiviral activity against herpes simplex virus”. Besides, the “efficacy of topical therapy compared to oral or parenteral” value in data set [2] is “lacks efficacy as compared to oral or parenteral administrations”. The “solubility in hydrophobic solvent systems” value (hydrophobic solvent systems) is given as “almost totally insoluble in hydrophobic solvent systems”. The “solubility in water (words)” value (listed as acyclovir) was “poor water-solubility”. Moreover, in data set [3], the “therapeutic effect on vulvar vestibulitis” value is reported as “therapeutic effect on vulvar vestibulitis”.
